Experimental data: ChEMBL document CHEMBL1255229, “Novel antimicrobial peptides that exhibit activity against select agents and other drug resistant bacteria” (2010)
Values after ≈ are worked out from the molar mass of the structure shown. Starred links: 1 amine or outer side, 2 acyl side, 3 side chain; linkers in the order of their positions; H or OH if unused. Non-standard residues stand in square brackets, D forms with d. Residues, ends and D or L forms follow the SMILES beside them. ξ: configuration not given here. Pro(3ξ,4ξ-(CH2)4) = O=C(O)[C@H]1NCC2CCCCC21; Oic = O=C(O)[C@@H]1C[C@@H]2CCCC[C@@H]2N1; X1 = O=C([C@@H]1CN([*:1])C2CCCCC21)[*:2]; Phe(4-F) = N[C@@H](Cc1ccc(F)cc1)C(=O)O; Tic = O=C(O)[C@@H]1Cc2ccccc2CN1; Orn = NCCC[C@H](N)C(=O)O; Dab = NCC[C@H](N)C(=O)O; Dap = NC[C@H](N)C(=O)O; βAla = NCCC(=O)O

What was measured:
Type in all cases: functional
Acinetobacter baumannii [1] = experiment: Antimicrobial activity against Acinetobacter baumannii WRAIR after 24 hrs
Francisella tularensis = experiment: Antimicrobial activity against Francisella tularensis SCHU-S4 after 24 hrs; settings: SCHU-S4, 24 h
Yersinia pestis = experiment: Antimicrobial activity against Yersinia pestis CO92 after 24 hrs; settings: CO92, 24 h
Brucella abortus = experiment: Antimicrobial activity against Brucella abortus 2308 after 24 hrs; settings: Brucella abortus, 2308, 24 h
Staphylococcus aureus = experiment: Antimicrobial activity against methicillin-resistant Staphylococcus aureus ATCC 33591 after 24 hrs; settings: ATCC 33591, 24 h
Acinetobacter baumannii [2] = experiment: Antimicrobial activity against Acinetobacter baumannii ATCC 19606 after 24 hrs; settings: ATCC 19606 = CIP 70.34 = JCM 6841, 24 h
Brucella suis = experiment: Antimicrobial activity against Brucella suis ATCC 23445 after 24 hrs; settings: ATCC 23445, 24 h
Bacillus anthracis = experiment: Antimicrobial activity against Bacillus anthracis Ames after 24 hrs
Burkholderia mallei = experiment: Antimicrobial activity against Burkholderia mallei ATCC 23444 after 24 hrs; settings: ATCC 23444, 24 h
[3] = system: Burkholderia pseudomallei; experiment: Antimicrobial activity against Burkholderia pseudomallei BURK003(1026b) after 24 hrs
Brucella melitensis = experiment: Antimicrobial activity against Brucella melitensis 16 M after 24 hrs

| Structure (SMILES) | MIC (Acinetobacter baumannii [1]) [µM] | MIC (Francisella tularensis) [µM] | MIC (Yersinia pestis) [µM] | MIC (Brucella abortus) [µM] | MIC (Staphylococcus aureus) [µM] | MIC (Acinetobacter baumannii [2]) [µM] | MIC (Brucella suis) [µM] | MIC (Bacillus anthracis) [µM] | MIC (Burkholderia mallei) [µM] | MIC [3] [µM] | MIC (Brucella melitensis) [µM] |
| --- | --- | --- | --- | --- | --- | --- | --- | --- | --- | --- | --- |
| CC(C)C[C@H](NC(=O)[C@@H](N)CCCCN)C(=O)N1Cc2ccccc2C[C@H]1C(=O)N1C[C@@H](C(=O)NCC(=O)N[C@@H](CCCCN)C(=O)N2Cc3ccccc3C[C@H]2C(=O)N2C[C@@H](C(=O)N[C@@H](Cc3ccccc3)C(=O)N3Cc4ccccc4C[C@H]3C(=O)N3C[C@@H](C(=O)NCC(=O)N[C@@H](CCCCN)C(=O)N4Cc5ccccc5C[C@H]4C(=O)N4C[C@@H](C(=O)N[C@@H](Cc5ccccc5)C(=O)N5Cc6ccccc6C[C@H]5C(=O)N5C[C@@H](C(=O)NCC(=O)N[C@@H](CCCCN)C(=O)N6Cc7ccccc7C[C@H]6C(=O)N6C[C@@H](C(=O)N[C@@H](CCCCN)C(=O)N[C@@H](CCCCN)C(=O)N[C@@H](CCCCN)C(=O)N[C@@H](CCCCN)C(N)=O)C7CCCCC76)C6CCCCC65)C5CCCCC54)C4CCCCC43)C3CCCCC32)C2CCCCC21 (stereo partly drawn) (H-KL[Tic][X1]GK[Tic][X1]F[Tic][X1]GK[Tic][X1]F[Tic][X1]GK[Tic][X1]KKKK-NH2) | 144 (≈ 502 µg/mL) | 144 (≈ 502 µg/mL) | 144 (≈ 502 µg/mL) | 144 (≈ 502 µg/mL) | 17.9 (≈ 62.4 µg/mL) | 4.6 (≈ 16 µg/mL) | 144 (≈ 502 µg/mL) | 8.97 (≈ 31.2 µg/mL) | 144 (≈ 502 µg/mL) | 144 (≈ 502 µg/mL) | 144 (≈ 502 µg/mL) |
| CC(=O)NCC(=O)N[C@@H](Cc1ccccc1)C(=O)N1Cc2ccccc2C[C@H]1C(=O)N1[C@H](C(=O)NCC(=O)N[C@@H](CCCCN)C(=O)N2Cc3ccccc3C[C@H]2C(=O)N2[C@H](C(=O)NCC(=O)N[C@@H](Cc3ccccc3)C(=O)N3Cc4ccccc4C[C@H]3C(=O)N3[C@H](C(=O)NCC(=O)N[C@@H](CCCCN)C(=O)N4Cc5ccccc5C[C@H]4C(=O)N[C@@H](CCCCN)C(=O)N[C@@H](CCCCN)C(=O)N[C@@H](CCCCN)C(=O)N[C@@H](CCCCN)C(N)=O)C[C@@H]4CCCC[C@@H]43)C[C@@H]3CCCC[C@@H]32)C[C@@H]2CCCC[C@@H]21 (Ac-GF[Tic][Oic]GK[Tic][Oic]GF[Tic][Oic]GK[Tic]KKKK-NH2) | 3.2 (≈ 7.81 µg/mL) | 100 (≈ 244 µg/mL) | 205 (≈ 500 µg/mL) | 205 (≈ 500 µg/mL) | 205 (≈ 500 µg/mL) | 3.2 (≈ 7.81 µg/mL) | 205 (≈ 500 µg/mL) | 12.8 (≈ 31.2 µg/mL) | 205 (≈ 500 µg/mL) | 205 (≈ 500 µg/mL) | 205 (≈ 500 µg/mL) |
| CC(=O)NCCC(=O)N[C@@H](Cc1ccc(F)cc1)C(=O)N1Cc2ccccc2C[C@H]1C(=O)N1CC2CCCCC2[C@H]1C(=O)NCCC(=O)N[C@@H](CN)C(=O)N1Cc2ccccc2C[C@H]1C(=O)N1CC2CCCCC2[C@H]1C(=O)NCCC(=O)N[C@@H](Cc1ccc(F)cc1)C(=O)N1Cc2ccccc2C[C@H]1C(=O)N1CC2CCCCC2[C@H]1C(=O)NCCC(=O)N[C@@H](CN)C(=O)N1Cc2ccccc2C[C@H]1C(=O)N[C@@H](CN)C(=O)N[C@@H](CN)C(=O)N[C@@H](CN)C(=O)N[C@@H](CN)C(N)=O (stereo partly drawn) (Ac-[βAla][Phe(4-F)][Tic][Pro(3ξ,4ξ-(CH2)4)][βAla][Dap][Tic][Pro(3ξ,4ξ-(CH2)4)][βAla][Phe(4-F)][Tic][Pro(3ξ,4ξ-(CH2)4)][βAla][Dap][Tic][Dap][Dap][Dap][Dap]-NH2) | 3.4 (≈ 7.75 µg/mL) | 219 (≈ 499 µg/mL) | 219 (≈ 499 µg/mL) | 219 (≈ 499 µg/mL) | 109 (≈ 249 µg/mL) | 3.4 (≈ 7.75 µg/mL) | 219 (≈ 499 µg/mL) | 6.8 (≈ 15.5 µg/mL) | 219 (≈ 499 µg/mL) | 219 (≈ 499 µg/mL) | 219 (≈ 499 µg/mL) |
| CC(C)C[C@H](NC(=O)[C@@H](N)CCCN)C(=O)N1Cc2ccccc2C[C@H]1C(=O)N1C[C@@H](C(=O)N[C@@H](CCCN)C(=O)N2Cc3ccccc3C[C@H]2C(=O)N2C[C@@H](C(=O)N[C@@H](Cc3ccccc3)C(=O)N3Cc4ccccc4C[C@H]3C(=O)N3C[C@@H](C(=O)N[C@@H](CCCN)C(=O)N4Cc5ccccc5C[C@H]4C(=O)N4C[C@@H](C(=O)N[C@@H](Cc5ccccc5)C(=O)N5Cc6ccccc6C[C@H]5C(=O)N5C[C@@H](C(=O)N[C@@H](CCCN)C(=O)N6Cc7ccccc7C[C@H]6C(=O)N6C[C@@H](C(=O)N[C@@H](CCCN)C(=O)N[C@@H](CCCN)C(=O)N[C@@H](CCCN)C(=O)N[C@@H](CCCN)C(N)=O)C7CCCCC76)C6CCCCC65)C5CCCCC54)C4CCCCC43)C3CCCCC32)C2CCCCC21 (stereo partly drawn) (H-[Orn]L[Tic][X1][Orn][Tic][X1]F[Tic][X1][Orn][Tic][X1]F[Tic][X1][Orn][Tic][X1][Orn][Orn][Orn][Orn]-NH2) | 156 (≈ 499 µg/mL) | 156 (≈ 499 µg/mL) | 156 (≈ 499 µg/mL) | 156 (≈ 499 µg/mL) | 156 (≈ 499 µg/mL) | 9.77 (≈ 31.3 µg/mL) | 156 (≈ 499 µg/mL) | 156 (≈ 499 µg/mL) | 156 (≈ 499 µg/mL) | 156 (≈ 499 µg/mL) | 156 (≈ 499 µg/mL) |
| CC(=O)NCC(=O)N[C@@H](Cc1ccccc1)C(=O)N1Cc2ccccc2C[C@H]1C(=O)N1C[C@@H](C(=O)NCC(=O)N[C@@H](CCCCN)C(=O)N2Cc3ccccc3C[C@H]2C(=O)N2C[C@@H](C(=O)NCC(=O)N[C@@H](Cc3ccccc3)C(=O)N3Cc4ccccc4C[C@H]3C(=O)N3C[C@@H](C(=O)NCC(=O)N[C@@H](CCCCN)C(=O)N4Cc5ccccc5C[C@H]4C(=O)NCCC(=O)N[C@@H](CCCCN)C(=O)N[C@@H](CCCCN)C(=O)N[C@@H](CCCCN)C(=O)N[C@@H](CCCCN)C(N)=O)C4CCCCC43)C3CCCCC32)C2CCCCC21 (stereo partly drawn) (Ac-GF[Tic][X1]GK[Tic][X1]GF[Tic][X1]GK[Tic][βAla]KKKK-NH2) | 6.2 (≈ 15.6 µg/mL) | 199 (≈ 500 µg/mL) | 199 (≈ 500 µg/mL) | 199 (≈ 500 µg/mL) | 199 (≈ 500 µg/mL) | 6.2 (≈ 15.6 µg/mL) | 199 (≈ 500 µg/mL) | 12.4 (≈ 31.2 µg/mL) | 199 (≈ 500 µg/mL) | 199 (≈ 500 µg/mL) | 199 (≈ 500 µg/mL) |
| CC(C)C[C@H](NC(=O)[C@@H](N)CCCCN)C(=O)N1Cc2ccccc2C[C@H]1C(=O)N1C[C@@H](C(=O)N[C@@H](CCCCN)C(=O)N2Cc3ccccc3C[C@H]2C(=O)N2C[C@@H](C(=O)N[C@@H](Cc3ccccc3)C(=O)N3Cc4ccccc4C[C@H]3C(=O)N3C[C@@H](C(=O)N[C@@H](CCCCN)C(=O)N4Cc5ccccc5C[C@H]4C(=O)N4C[C@@H](C(=O)N[C@@H](Cc5ccccc5)C(=O)N5Cc6ccccc6C[C@H]5C(=O)N5C[C@@H](C(=O)N[C@@H](CCCCN)C(=O)N6Cc7ccccc7C[C@H]6C(=O)N6C[C@@H](C(=O)N[C@@H](CCCCN)C(=O)N[C@@H](CCCCN)C(=O)N[C@@H](CCCCN)C(=O)N[C@@H](CCCCN)C(N)=O)C7CCCCC76)C6CCCCC65)C5CCCCC54)C4CCCCC43)C3CCCCC32)C2CCCCC21 (stereo partly drawn) (H-KL[Tic][X1]K[Tic][X1]F[Tic][X1]K[Tic][X1]F[Tic][X1]K[Tic][X1]KKKK-NH2) | 150 (≈ 497 µg/mL) | 150 (≈ 497 µg/mL) | 150 (≈ 497 µg/mL) | 150 (≈ 497 µg/mL) | 150 (≈ 497 µg/mL) | 9.3 (≈ 30.8 µg/mL) | 150 (≈ 497 µg/mL) | 150 (≈ 497 µg/mL) | 150 (≈ 497 µg/mL) | 150 (≈ 497 µg/mL) | 150 (≈ 497 µg/mL) |
| CC(=O)NCC(=O)N[C@@H](Cc1ccccc1)C(=O)N1Cc2ccccc2C[C@H]1C(=O)N1C[C@@H](C(=O)NCC(=O)N[C@@H](CCN)C(=O)N2Cc3ccccc3C[C@H]2C(=O)N2C[C@@H](C(=O)NCC(=O)N[C@@H](Cc3ccccc3)C(=O)N3Cc4ccccc4C[C@H]3C(=O)N3C[C@@H](C(=O)NCC(=O)N[C@@H](CCN)C(=O)N4Cc5ccccc5C[C@H]4C(=O)N[C@@H](CCN)C(=O)N[C@@H](CCN)C(=O)N[C@@H](CCN)C(=O)N[C@@H](CCN)C(N)=O)C4CCCCC43)C3CCCCC32)C2CCCCC21 (stereo partly drawn) (Ac-GF[Tic][X1]G[Dab][Tic][X1]GF[Tic][X1]G[Dab][Tic][Dab][Dab][Dab][Dab]-NH2) | 3.4 (≈ 7.73 µg/mL) | 220 (≈ 500 µg/mL) | 220 (≈ 500 µg/mL) | 220 (≈ 500 µg/mL) | 220 (≈ 500 µg/mL) | 3.4 (≈ 7.73 µg/mL) | 220 (≈ 500 µg/mL) | 6.8 (≈ 15.5 µg/mL) | 220 (≈ 500 µg/mL) | 220 (≈ 500 µg/mL) | 220 (≈ 500 µg/mL) |
| CC(=O)NCC(=O)N[C@@H](Cc1ccc(F)cc1)C(=O)N1Cc2ccccc2C[C@H]1C(=O)N1CC2CCCCC2[C@H]1C(=O)NCC(=O)N[C@@H](CCCCN)C(=O)N1Cc2ccccc2C[C@H]1C(=O)N1CC2CCCCC2[C@H]1C(=O)NCC(=O)N[C@@H](Cc1ccc(F)cc1)C(=O)N1Cc2ccccc2C[C@H]1C(=O)N1CC2CCCCC2[C@H]1C(=O)NCC(=O)N[C@@H](CCCCN)C(=O)N1Cc2ccccc2C[C@H]1C(=O)N[C@@H](CCCCN)C(=O)N[C@@H](CCCCN)C(=O)N[C@@H](CCCCN)C(=O)N[C@@H](CCCCN)C(N)=O (stereo partly drawn) (Ac-G[Phe(4-F)][Tic][Pro(3ξ,4ξ-(CH2)4)]GK[Tic][Pro(3ξ,4ξ-(CH2)4)]G[Phe(4-F)][Tic][Pro(3ξ,4ξ-(CH2)4)]GK[Tic]KKKK-NH2) | 6.2 (≈ 15.4 µg/mL) | 202 (≈ 500 µg/mL) | 202 (≈ 500 µg/mL) | 202 (≈ 500 µg/mL) | 101 (≈ 250 µg/mL) | 3.1 (≈ 7.68 µg/mL) | 202 (≈ 500 µg/mL) | 12.6 (≈ 31.2 µg/mL) | 202 (≈ 500 µg/mL) | 202 (≈ 500 µg/mL) | 202 (≈ 500 µg/mL) |
